Measured values as given in the supplement of paper PMC8967900.

What was measured:
Test in all cases: selective drug sensitivity score (sDSS, relative to normal bone marrow) (sDSS (score)); higher = more potent and effective on the cell line relative to normal bone marrow cells
Settings in all cases: 72 h
ALL-SIL = system: ALL-SIL
CCRF-CEM = system: CCRF-CEM
COG-LL-317 = system: COG-LL-317
COG-LL-319h = system: COG-LL-319h
HPB-ALL = system: HPB-ALL
KARPAS-45 = system: KARPAS-45
KASUMI-10 = system: KASUMI-10
KASUMI-2 = system: KASUMI-2
MHH-CALL-2 = system: MHH-CALL-2
MHH-CALL-3 = system: MHH-CALL-3
MHH-CALL-4 = system: MHH-CALL-4
MOLT-16 = system: MOLT-16
MOLT-4 = system: MOLT-4
NALM-6 = system: NALM-6
PEER = system: PEER
PF-382 = system: PF-382
RCH-ACV = system: RCH-ACV
RPMI-8402 = system: RPMI-8402
SEM cells = system: SEM cells
TMD5 = system: TMD5
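Further: ALL cell lines in 384-well plates, five doses spanning 10,000-fold, each plate scaled between vehicle and 100 µmol/L benzalkonium chloride controls, sDSS an adapted area-under-curve metric.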

Structure (SMILES) | selective drug sensitivity score (ALL-SIL) | selective drug sensitivity score (CCRF-CEM) | selective drug sensitivity score (COG-LL-317) | selective drug sensitivity score (COG-LL-319h) | selective drug sensitivity score (HPB-ALL) | selective drug sensitivity score (KARPAS-45) | selective drug sensitivity score (KASUMI-10) | selective drug sensitivity score (KASUMI-2) | selective drug sensitivity score (MHH-CALL-2) | selective drug sensitivity score (MHH-CALL-3) | selective drug sensitivity score (MHH-CALL-4) | selective drug sensitivity score (MOLT-16) | selective drug sensitivity score (MOLT-4) | selective drug sensitivity score (NALM-6) | selective drug sensitivity score (PEER) | selective drug sensitivity score (PF-382) | selective drug sensitivity score (RCH-ACV) | selective drug sensitivity score (RPMI-8402) | selective drug sensitivity score (SEM cells) | selective drug sensitivity score (TMD5)
CCc1c2c(nc3ccc(O)cc13)-c1cc3c(c(=O)n1C2)COC(=O)[C@]3(O)CC [SN-38] (top concentration 10000 nM) | 27.3 | 27.6 | 27.6 | 26.7 | 11.2 | 3.98 | 18.9 | 18.8 | 25.2 | 16.2 | 19.7 | 28.2 | 28.2 | 22.1 | 12.8 | 24.8 | 27.6 | 25.4 | 25.4 | 18.3
CC[C@@H](C(=O)[C@@H](C)[C@@H](O)[C@H](C)[C@@H]1O[C@@H]([C@@H](CC)C(=O)O)CC[C@@H]1C)[C@H]1O[C@]2(C=C[C@@H](O)[C@]3(CC[C@@](C)([C@H]4CC[C@](O)(CC)[C@H](C)O4)O3)O2)[C@H](C)C[C@@H]1C [Salinomycin] (top concentration 50000 nM) | 0.6 | 2 | -2.2 | -0.8 | -1.2 | 5.4 | 1.8 | -23.2 | 10.8 | -3.3 | 8.5 | 10.7 | -5.3 | -4.9 | 10.5 | -5.4 | -15.4 | 10.1 | -5.8 | 1.1
CNC(=O)CN1CCC(Oc2cc3c(Nc4cccc(Cl)c4F)ncnc3cc2OC)CC1 [Sapitinib] (top concentration 1000 nM) | 0 | 0 | 0 | 0 | 0 | 0 | 0 | 0 | 0 | 0.1 | 0 | 0 | 0 | 0 | 0 | 0 | 0 | 0 | 0 | 0
O[C@H]1CC[C@H](Nc2ncc3nc(Nc4c(F)cc(F)cc4F)n([C@H]4CCOC4)c3n2)CC1 [Tanzisertib] (top concentration 10000 nM) | 0 | 0 | 0 | 0 | 0 | 0 | 0 | 0 | 0.9 | 0 | 0.2 | 0 | 0 | 0 | 0 | 0 | 0 | 0 | 0 | 0
CO[C@H]1C[C@@H]2CC[C@@H](C)[C@@](O)(O2)C(=O)C(=O)N2CCCC[C@H]2C(=O)O[C@H]([C@H](C)C[C@@H]2CC[C@@H](OC(=O)C(C)(CO)CO)[C@H](OC)C2)CC(=O)[C@H](C)/C=C(\C)[C@@H](O)[C@@H](OC)C(=O)[C@H](C)C[C@H](C)/C=C/C=C/C=C/1C [Temsirolimus] (top concentration 100 nM) | 2.76 | 7.76 | 3.96 | 4.66 | -4.44 | 2.26 | -5.04 | 6.46 | -0.34 | 7.36 | -3.54 | 11.7 | -1.24 | -2.34 | 7.16 | 7.46 | 20.8 | -1.04 | 1.36 | -5.04
COc1cc([C@@H]2c3cc4c(cc3[C@@H](O[C@@H]3O[C@@H]5CO[C@@H](c6cccs6)O[C@H]5[C@H](O)[C@H]3O)[C@H]3COC(=O)[C@H]23)OCO4)cc(OC)c1O [Teniposide] (top concentration 10000 nM) | 0 | 0 | 0 | 0 | 0 | 0 | 0 | 2.4 | 0 | 0 | 0 | 0 | 0 | 0 | 0 | 0 | 0 | 0 | 0 | 0
Oc1nc(-c2ccc(C(F)(F)F)cc2)nc2c1CSCC2 [XAV939] (top concentration 10000 nM) | -0.14 | -0.14 | -0.14 | -0.14 | -0.14 | -0.14 | -0.14 | 1.46 | 0.26 | -0.14 | -0.14 | -0.14 | -0.14 | -0.14 | 0.96 | -0.14 | 0.06 | -0.14 | 0.56 | -0.14
